{"source": "patent US20100048594A1", "about": "“USE OF CYTOHESIN INHIBITORS FOR CHEMICALLY INDUCING LONGEVITY” (RHEINISCHE FRIEDRICH-WILHELMS UNIVERSITAT, priority 2006, published 2010)", "key": {"Akt [1]": {"test_system": "Akt", "experiment": "Insulin-dependent phosphorylation of Akt in HepG2 cells (immunoblot)", "assay_type": "cell-based, human", "settings": "100 nM insulin", "description": "Human hepG2 cells (ECACC) were cultivated in EMEM medium (Cambrex) with the addition of 10% fetal calf serum. 10^5 cells were seeded in 2 ml medium in 6 well plates and were cultivated at 37° C. in a moist atmosphere with 5% CO2 for 1 to 3 days, before being used for experiments.\nThe expression of IGFBP1 (insulin-like growth factor binding protein) is controlled by insulin via the forkhead box transcription factors O1A (FoxO1A) and O3A (FoxO3A). Following insulin stimulation, the protein kinase B/Akt (PKB/Akt) is activated via phosphorylation, based upon the phosphoinositide-3-kinase (PI3K), reaches the nucleus where it phosphorylates the transcription factor O1A (FoxO1A), which leads to a decrease in the gene expression of IGFBP1, for example.\nFor human HepG2 cells (ECACC), serum was removed from the medium for 90 minutes, the cells were incubated for another 60 minutes with 5 μM, 10 μM and 15 μM of the compound according to formula (9), 200 nM Wortmannin or DMSO (dimethylsulfoxide) at a corresponding concentration, after which the cells were stimulated for 10 minutes with 100 nM insulin. The cells were then lysed in lysate buffer (20 mM Tris-Cl, pH 7.5, 150 mM NaCl, 1 mM EDTA, 1 mM EGTA, 2.5 mM sodium pyrophosphate, 1 mM β-glycerophosphate, 1 mM sodium vanadate, 1% Triton X-100) and protease inhibitor mix HP (Serva).\nStandardized quantities of protein were separated out using SDS-PAGE, and were transferred to nitrocellulose membranes. For protein identification via immunoblotting, an antibody was used against the phosphorylated protein Akt, pAkt (Thr308) (cell signaling). Visualization was carried out using the Enhanced Chemiluminescence System (Millipore) using a VersaDoc 5000 CCD camera (BioRad), and the intensity of the bands was quantified using the QuantityOne software (BioRad)."}, "1nR (insulin receptor)": {"test_system": "1nR (insulin receptor)", "experiment": "Expression of insulin-repressed gene 1nR (insulin receptor) in fed Drosophila larvae (real-time PCR)", "assay_type": "in vivo", "settings": "10 mg compound per 1 g brewer's yeast, 3 days", "description": "Three groups of 100 Drosophila larvae received 10 mg of the compound according to formula (9) mixed with 1 g autoclaved and pulverized brewer's yeast (Brewferm), while three control groups of 100 animals each received the uncut brewer's yeast. This food was administered on water-impregnated filters (Macherey-Nagel) for 3 days at 25° C.\nIn each case, more than 10 animals of the group were washed thoroughly with water, placed in lysate buffer (NucleoSpin RNA II kit, Macherey & Nagel), and homogenized for 1 minute at maximum speed (Ultra-Turrax T25basic). Total RNA was isolated using the NucleoSpin RNA II Kit (Macherey & Nagel, including DNase I-treatment on the column).\ncDNA was produced from each 500 ng total RNA using the QuantiTect Reverse Transcription Kit (Qiagen), according to the manufacturer's instructions, including DNase I treatment. PCR was performed in batches with a total volume of 25 μl (iQ5 Real Time PCR Detection System, BioRad). The batches contained 1 μl of the cDNA batch, in each case 200 nM and 3′- and 5′-primer (Metabion) 12.5 μl 2×iQ5 SYBR Green Supermix (BioRad).\nThe PCR program that was used comprised 40 cycles with the following steps: 15 seconds denaturing at 95° C., 30 seconds annealing at 59° C. and 30 seconds extension at 72° C. Evaluation was carried out using the iQ5 Optical System software (Version 1.1.1442.OCR, BioRad). […]"}, "Akt [2]": {"test_system": "Akt", "experiment": "Insulin-stimulated phosphorylation of Akt in Drosophila S2 Schneider cells (Western blot)", "assay_type": "cell-based", "settings": "10 μM compound 2 hours, 10 μg/ml human insulin 15 minutes", "description": "10^6 Drosophila S2 cells (Schneider, 1972. J. Embryol. Exp. Morphol. 27, 353) were seeded in cell culture medium (PAN company) with 10% fetal calf serum and 1% streptomycin, penicillin (Gibco) in 35 mm cell culture plates (Nunc company) and cultivated for 2 days at 25° C. to 70-80% confluence. After 2 days, 0.5% (v/v) of the medium DMSO was added, and, based upon the experiment, 10 μM of the compound according to formula (9) was added for 2 hours before insulin stimulation. For an insulin stimulation, human insulin (Sigma) was used for 15 minutes at a rate of 10 μg/ml. Once stimulation was complete, the cells were washed with cold PBS, lysed in cold (4° C.) lysate buffer (50 mM Tris-HCl, pH 8.0, 150 mM NaCl, 1.0% Triton X-100, 0.1% SDS, 0.5% sodium deoxycholate, 50 mM NaF, 100 μM sodium orthovanadate, 1 mM phenylmethylsulfonyl fluoride and EDTA-free protease inhibitor (Roche), according to manufacturer's instructions, and used in the Western Blot analysis.\nIn each case, 10 μg protein were isolated on a 12% SDS polyacrylamide gel and transferred to 0.22 μm porous nitrocellulose membranes (Amersham). […]\nVisualization was performed by means of the ECL Kit (Enhanced Chemiluminescence, Amersham) using the VersaDoc 5000 Imaging System (BioRad) and the QuantityOne software (BioRad)."}}, "data": [{"smiles": "COc1nc(-c2ccc3c(c2)OCO3)n(-c2ccc(NC(=O)CSc3ccccc3)cc2)n1", "note": "[Compound (9)]", "values": [{"measurement": "reduction in the phosphorylation of Akt as compared with phosphorylation following insulin stimulation", "setting": "Akt [1]; HepG2 cells, 10 μM compound", "value": 50, "unit": "%"}, {"measurement": "phosphorylation of Akt as % of the phosphorylation following insulin stimulation", "setting": "Akt [1]; HepG2 cells, 15 μM compound", "value": "approximately 25%"}, {"measurement": "insulin-dependent phosphorylation of Akt", "setting": "Akt [1]; HepG2 cells, 5, 10, 15 μM compound, based upon concentration", "value": "inhibited"}, {"measurement": "expression of insulin-repressed gene 1nR (insulin receptor)", "setting": "1nR (insulin receptor)", "value": "more than double"}, {"measurement": "insulin-stimulated phosphorylation of the protein Akt", "setting": "Akt [2]", "value": "decreased by half"}]}]}
